Laboratory results from ChEMBL document CHEMBL3526100, “A refined cytochrome P540 IC₅₀ shift assay for reliably identifying CYP3A time-dependent inhibitors” (Drug Metab Dispos, 2011).

Tests used:
Format in all cases: ADME
[1] = target: T1, Cytochrome P450 3A4 (Homo sapiens, UniProt P08684); assay: Time dependent inhibition of CYP3A4 in human liver microsomes assessed as conversion of testosterone to 6beta-hydroxytestosterone at 0.01 to 100 uM preincubated for 60 mins followed by testosterone treatment measured after 10 mins by LC-MS/MS analysis
T1 sequence (P08684 whole entry): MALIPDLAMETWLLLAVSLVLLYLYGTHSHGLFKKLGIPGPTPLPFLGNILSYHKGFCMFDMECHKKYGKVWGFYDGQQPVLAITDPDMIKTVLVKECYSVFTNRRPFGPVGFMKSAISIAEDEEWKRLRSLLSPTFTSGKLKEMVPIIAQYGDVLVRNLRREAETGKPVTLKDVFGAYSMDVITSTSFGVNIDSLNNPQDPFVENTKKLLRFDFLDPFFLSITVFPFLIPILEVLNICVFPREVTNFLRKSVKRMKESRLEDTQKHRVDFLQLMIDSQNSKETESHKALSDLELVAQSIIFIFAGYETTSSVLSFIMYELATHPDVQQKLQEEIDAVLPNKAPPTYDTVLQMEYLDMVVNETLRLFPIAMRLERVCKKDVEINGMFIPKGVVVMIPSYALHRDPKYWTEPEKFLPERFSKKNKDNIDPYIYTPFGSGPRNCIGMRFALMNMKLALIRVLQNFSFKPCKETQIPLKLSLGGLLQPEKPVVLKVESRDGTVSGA

[2] = target: T1, Cytochrome P450 3A4; assay: Time dependent inhibition of CYP3A4 in human liver microsomes assessed as conversion of testosterone to 6beta-hydroxytestosterone at 0.01 to 100 uM preincubated for 60 mins followed by testosterone treatment measured after 10 mins by LC-MS/MS analysis in presence of NADPH
[3] = target: T1, Cytochrome P450 3A4; assay: Time dependent inhibition of CYP3A4 in human liver microsomes assessed as conversion of testosterone to 6beta-hydroxytestosterone at 0.01 to 100 uM preincubated for 60 mins followed by testosterone treatment measured after 10 mins by refined CYP450 IC50 shift assay
[4] = target: T1, Cytochrome P450 3A4; assay: Time dependent inhibition of CYP3A4 in human liver microsomes assessed as conversion of testosterone to 6beta-hydroxytestosterone at 0.01 to 100 uM preincubated for 60 mins followed by testosterone treatment measured after 10 mins by refined CYP450 IC50 shift assay in presence of NADPH

Measured: inhibition (INH)

CC[C@H]1OC(=O)[C@H](C)[C@@H](O[C@H]2C[C@@](C)(OC)[C@@H](O)[C@H](C)O2)[C@H](C)[C@@H](O[C@@H]2O[C@H](C)C[C@H](N(C)C)[C@H]2O)[C@](C)(O)C[C@@H](C)C(=O)[C@H](C)[C@@H](O)[C@]1(C)O [ERYTHROMYCIN]
Active: [1] | [2] | [3] | [4]

O=C(c1ccc(OCCN2CCCCC2)cc1)c1c(-c2ccc(O)cc2)sc2cc(O)ccc12 [RALOXIFENE]
Active: [1] | [2] | [3] | [4]

C/C(=C\COc1c2ccoc2cc2oc(=O)ccc12)CCC(O)C(C)(C)O (stereo not given) [DIHYDROXYBERGAMOTTIN]
Active: [1] | [2] | [3] | [4]

CC(C)=CCC/C(C)=C/COc1c2ccoc2cc2oc(=O)ccc12 [BERGAMOTTIN]
Active: [1] | [2] | [3] | [4]

CNCCC(Oc1ccc(C(F)(F)F)cc1)c1ccccc1 (stereo not given) [FLUOXETINE]
Active: [1] | [2] | [3] | [4]
